This note sets out measurements from PubChem BioAssay (NCI).

Test systems include CCRF-CEM leukemia; EKVX NSCLC; IGROV1 ovarian; LOX IMVI melanoma; NCI-H460 lung; NCI/ADR-RES ovarian; OVCAR-4 ovarian; RXF 393 renal; SNB-19 CNS; UO-31 renal.
Holding throughout (assay): growth of human tumour cells (NCI), 48 h

The structures appear in SMILES notation. Where “and” joins values, the source holds several entries; their conditions need not be identical. Identical values can stand only once.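 Cultured in 96-well plates, cells were exposed to test compound for 48 hours across five concentrations. The concentration for 50% growth inhibition is given as GI50. TGI: total growth inhibition.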

As to `CCOC(=O)CC1C(CNC(=O)NC)OC(n2cnc3c(NC(=O)Nc4ccccc4)ncnc32)C1O[Si](C)(C)C(C)(C)C` (centres undefined), the GI50 was 6.69 µM in the experiment on CCRF-CEM leukemia; 17.7 µM in the experiment with EKVX NSCLC; 3.85 µM in the experiment with IGROV1 ovarian; 5.46 µM in the experiment on LOX IMVI melanoma; 5.53 µM with NCI-H460 lung; > 100 µM with NCI/ADR-RES ovarian. In addition, the GI50 is 12.3 µM in the experiment on OVCAR-4 ovarian, 2.01 µM in the experiment with RXF 393 renal, 29 µM in the experiment with SNB-19 CNS and 12.1 µM in the experiment with UO-31 renal. In addition, the TGI in the experiment on CCRF-CEM leukemia is 88.6 µM; in the experiment on EKVX NSCLC, > 100 µM; in the experiment with IGROV1 ovarian, 18 µM; with LOX IMVI melanoma, > 100 µM; with NCI-H460 lung it was 25 µM; in the experiment on NCI/ADR-RES ovarian, > 100 µM. Further, the TGI in the experiment with OVCAR-4 ovarian was > 100 µM; in the experiment on RXF 393 renal, 4.63 µM; with SNB-19 CNS it was > 100 µM; in the experiment with UO-31 renal, 29.5 µM.

In the case of `C=CC(=O)N1CCC(CNc2ncnc(N)c2-c2ccc(Oc3ccccc3)cc2)CC1`, the GI50 in the experiment with CCRF-CEM leukemia is 27.2 µM; in the experiment with EKVX NSCLC it was 24.1 µM; in the experiment with IGROV1 ovarian, 8.51 µM; in the experiment on LOX IMVI melanoma, 16.3 µM; in the experiment on NCI-H460 lung, 34.8 µM; with NCI/ADR-RES ovarian, 24.6 µM. The GI50 was 24.1 µM with OVCAR-4 ovarian, 22.4 µM with RXF 393 renal, 32.8 µM in the experiment on SNB-19 CNS and 8.63 µM in the experiment with UO-31 renal. The TGI in the experiment on CCRF-CEM leukemia was > 100 µM; with EKVX NSCLC it was > 100 µM; with IGROV1 ovarian, 35.8 µM; with LOX IMVI melanoma, 33.2 µM; in the experiment on NCI-H460 lung it was > 100 µM; with NCI/ADR-RES ovarian, 79.4 µM. The TGI with OVCAR-4 ovarian is > 100 µM; in the experiment with RXF 393 renal, 85.2 µM; in the experiment on SNB-19 CNS, > 100 µM; in the experiment on UO-31 renal, 49.2 µM.

For the compound `CSc1ccc(NC(=O)CCl)cc1`, the TGI in the experiment with CCRF-CEM leukemia, with EKVX NSCLC, with IGROV1 ovarian, in the experiment with LOX IMVI melanoma, in the experiment on NCI-H460 lung and in the experiment with NCI/ADR-RES ovarian was > 10 µM in each case. The TGI in the experiment with OVCAR-4 ovarian is > 10 µM; in the experiment with RXF 393 renal, > 10 µM; in the experiment with SNB-19 CNS, > 10 µM; in the experiment with UO-31 renal, 9.79 µM.

As to `O=C(Cc1ccc(-c2ccc(OCCN3CCOCC3)cc2)cn1)NCc1ccccc1`, the GI50 with CCRF-CEM leukemia is 0.0397 µM and 0.0433 µM; in the experiment on IGROV1 ovarian it was 0.0944 µM and 0.0708 µM; with LOX IMVI melanoma, 0.0612 µM and 0.0636 µM; with NCI-H460 lung, 0.0355 µM and 0.0371 µM; in the experiment with NCI/ADR-RES ovarian, 0.0334 µM and 0.0341 µM; with RXF 393 renal, 0.0108 µM. In addition, the GI50 with SNB-19 CNS is 0.0528 µM and 0.0448 µM; in the experiment on UO-31 renal, 0.0821 µM and 0.2 µM. In addition, the TGI is > 100 µM with CCRF-CEM leukemia; > 100 µM in the experiment on EKVX NSCLC; > 100 µM with IGROV1 ovarian; > 100 µM with LOX IMVI melanoma; 16.2 µM and > 10 µM in the experiment on NCI-H460 lung; > 100 µM in the experiment on NCI/ADR-RES ovarian. Moreover, the TGI in the experiment on OVCAR-4 ovarian was > 100 µM; in the experiment with RXF 393 renal, 0.0497 µM; in the experiment on SNB-19 CNS, > 100 µM; in the experiment with UO-31 renal it was > 100 µM.

In the case of `COc1cc(-c2cn(-c3ccc(F)cc3)c(=O)[nH]2)cc(OC)c1OC`, the GI50 with CCRF-CEM leukemia, with EKVX NSCLC, in the experiment with IGROV1 ovarian, in the experiment on LOX IMVI melanoma, in the experiment with NCI-H460 lung and with NCI/ADR-RES ovarian was > 100 µM throughout. For the same compound, the GI50 in the experiment with OVCAR-4 ovarian, in the experiment on RXF 393 renal, in the experiment with SNB-19 CNS and in the experiment on UO-31 renal was > 100 µM in each case. Moreover, the TGI with CCRF-CEM leukemia, with EKVX NSCLC, with IGROV1 ovarian, with LOX IMVI melanoma, with NCI-H460 lung and in the experiment with NCI/ADR-RES ovarian was > 100 µM in each case. Besides, the TGI with OVCAR-4 ovarian, in the experiment with RXF 393 renal, in the experiment with SNB-19 CNS and with UO-31 renal was > 100 µM throughout.

For the compound `N#CC1=C(N)Oc2c(ccc3cccnc23)C1c1ccccc1` (centres undefined), the TGI with CCRF-CEM leukemia was 13.4 µM; in the experiment with EKVX NSCLC it was > 100 µM; with IGROV1 ovarian, > 100 µM; in the experiment with LOX IMVI melanoma, > 100 µM; in the experiment on NCI-H460 lung, > 46.3 µM; in the experiment on NCI/ADR-RES ovarian it was 12.4 µM. Also, the TGI is 98.9 µM in the experiment on OVCAR-4 ovarian, > 30.7 µM in the experiment with RXF 393 renal, > 74.1 µM with SNB-19 CNS and > 100 µM with UO-31 renal. Further, the GI50 in the experiment on NCI/ADR-RES ovarian was 0.464 µM.

As to `CCN(CC)CCC(CNc1c(C)cnc2cc(Cl)ccc12)c1ccc(Cl)c(Cl)c1` (centres undefined), the GI50 was 2.81 µM with CCRF-CEM leukemia; 3.21 µM in the experiment on EKVX NSCLC; 2.26 µM with IGROV1 ovarian; 1.59 µM with LOX IMVI melanoma; 2.63 µM in the experiment with NCI-H460 lung; 6.33 µM in the experiment on NCI/ADR-RES ovarian. The GI50 in the experiment on OVCAR-4 ovarian was 3.81 µM; with RXF 393 renal, 2.86 µM; in the experiment on SNB-19 CNS, 4.79 µM; in the experiment on UO-31 renal, 2.59 µM. Also, the TGI in the experiment with CCRF-CEM leukemia came out at 9.31 µM; in the experiment on EKVX NSCLC it was 14.2 µM; with IGROV1 ovarian, 12.1 µM; in the experiment with LOX IMVI melanoma it was 3.14 µM; with NCI-H460 lung, 10.7 µM; with NCI/ADR-RES ovarian, 21.3 µM. The TGI with OVCAR-4 ovarian amounted to 19.2 µM; in the experiment with RXF 393 renal, 11.4 µM; with SNB-19 CNS it was 18 µM; in the experiment with UO-31 renal, 13.9 µM.

As to `COc1ccc2cn3c4ccc(O)cc4[nH]c(=O)c3c2c1`, the GI50 was 0.0845 µM in the experiment on CCRF-CEM leukemia; 0.778 µM in the experiment on EKVX NSCLC; 0.277 µM in the experiment on IGROV1 ovarian; 0.101 µM with LOX IMVI melanoma; 0.114 µM in the experiment on NCI-H460 lung; 0.0675 µM with NCI/ADR-RES ovarian. For the same compound, the GI50 was 9.51 µM with OVCAR-4 ovarian, 0.0447 µM in the experiment on RXF 393 renal, 0.206 µM in the experiment on SNB-19 CNS and 0.456 µM with UO-31 renal. Moreover, the TGI in the experiment with CCRF-CEM leukemia is 12.2 µM; in the experiment on EKVX NSCLC, 20.7 µM; in the experiment on IGROV1 ovarian, 17.3 µM; with LOX IMVI melanoma, 4.93 µM; in the experiment on NCI-H460 lung, 10.8 µM; with NCI/ADR-RES ovarian it was 14.2 µM. Moreover, the TGI in the experiment with OVCAR-4 ovarian was 23.3 µM; in the experiment on RXF 393 renal it was 1.04 µM; in the experiment with SNB-19 CNS it was 18.7 µM; in the experiment on UO-31 renal, 15.1 µM.

`COc1ccc(/C=N/C2=NNC(C)(c3ccccc3O)N2C(Cc2c[nH]c3ccccc23)C(=O)O)cc1` (centres undefined): the GI50 is 3.04 µM in the experiment with CCRF-CEM leukemia; 1.96 µM with EKVX NSCLC; 1.72 µM with IGROV1 ovarian; 2.68 µM in the experiment on LOX IMVI melanoma; 2.55 µM in the experiment with NCI-H460 lung; 2.76 µM in the experiment with NCI/ADR-RES ovarian. The GI50 with OVCAR-4 ovarian is 2.26 µM; in the experiment on RXF 393 renal, 1.27 µM; with SNB-19 CNS it was 3.76 µM; in the experiment with UO-31 renal, 1.62 µM. For the same compound, the TGI with CCRF-CEM leukemia is 40.4 µM; with EKVX NSCLC it was 10.8 µM; with IGROV1 ovarian, 9.5 µM; in the experiment with LOX IMVI melanoma, 10.1 µM; in the experiment with NCI-H460 lung it was 8.51 µM; in the experiment on NCI/ADR-RES ovarian, 14 µM. The TGI with OVCAR-4 ovarian was found to be 15.1 µM; in the experiment with RXF 393 renal, 6.26 µM; in the experiment on SNB-19 CNS, 14.6 µM; with UO-31 renal, 11.2 µM.

For `CCOc1cc(CCNC)c2c(ccc3ccc(OC)c(O)c32)c1OC`, the TGI with CCRF-CEM leukemia is > 100 µM; with EKVX NSCLC, 36.3 µM; in the experiment on IGROV1 ovarian it was 27.7 µM; in the experiment with LOX IMVI melanoma it was 24.2 µM; in the experiment with NCI-H460 lung, 32.9 µM; with NCI/ADR-RES ovarian it was 48.2 µM. Moreover, the TGI in the experiment with OVCAR-4 ovarian was determined as 27.2 µM; with RXF 393 renal it was 31.5 µM; in the experiment on SNB-19 CNS, 30.1 µM; in the experiment on UO-31 renal, 29.6 µM.

For `CN1CCC(n2cnc(-c3ccc(F)cc3)c2-c2ccnc(Nc3ccccc3)n2)CC1`, the GI50 with CCRF-CEM leukemia was 12.1 µM; with EKVX NSCLC it was 3.75 µM; in the experiment with IGROV1 ovarian, 3.04 µM; in the experiment on LOX IMVI melanoma, 5.78 µM; with NCI-H460 lung it was 5.39 µM; in the experiment with NCI/ADR-RES ovarian, 7.65 µM. Moreover, the GI50 with OVCAR-4 ovarian is 8.12 µM; with RXF 393 renal, 10.5 µM; with SNB-19 CNS, 16.1 µM; with UO-31 renal it was 0.969 µM. Also, the TGI in the experiment on CCRF-CEM leukemia was > 25 µM; in the experiment with EKVX NSCLC, > 25 µM; in the experiment on IGROV1 ovarian it was > 13.1 µM; in the experiment with LOX IMVI melanoma, > 25 µM; with NCI-H460 lung, > 25 µM; in the experiment on NCI/ADR-RES ovarian it was > 25 µM. The TGI in the experiment on OVCAR-4 ovarian is > 25 µM; in the experiment on RXF 393 renal, > 25 µM; in the experiment with SNB-19 CNS, > 25 µM; in the experiment with UO-31 renal, > 11.7 µM.

For the compound `COc1cc(NC(=O)c2cc3ccccc3cc2O)c(OC)cc1Cl`, the GI50 with CCRF-CEM leukemia is 2.61 µM; in the experiment on EKVX NSCLC, 1.29 µM; in the experiment with IGROV1 ovarian, 0.0776 µM; with LOX IMVI melanoma, 2.47 µM; in the experiment on NCI-H460 lung, 1.9 µM; in the experiment with NCI/ADR-RES ovarian it was 1.99 µM. Also, the GI50 in the experiment with OVCAR-4 ovarian was 2.12 µM; in the experiment on RXF 393 renal, 2.24 µM; with SNB-19 CNS it was 2.53 µM; in the experiment on UO-31 renal it was 1.16 µM. The TGI is > 20.5 µM with CCRF-CEM leukemia; 5.01 µM with EKVX NSCLC; 15.4 µM in the experiment with IGROV1 ovarian; > 100 µM in the experiment with LOX IMVI melanoma; 4.91 µM in the experiment with NCI-H460 lung; 6.03 µM in the experiment with NCI/ADR-RES ovarian. For the same compound, the TGI in the experiment on OVCAR-4 ovarian was 8.21 µM; with RXF 393 renal, 8.01 µM; with SNB-19 CNS, 8.21 µM; in the experiment on UO-31 renal, > 24.9 µM.
